The text below walks through data of patent US20240408082A1, “METHODS FOR TREATING CANCERS AND TUMORS” (BEYONDSPRING PHARMACEUTICALS, INC., priority 2021, published 2024).

A value given as a limit tells only on which side of the number the result lay.

The subject of the test is melanoma models. In words: 3D clonogenic assay, Example 2, melanoma models. The test is classed as cell-based. As to conditions: n=9 models. The procedure:
The present study investigated plinabulin for anticancer activity ex vivo in 68 out of 71 originally planned patient-derived xenograft (PDX) models representing major cancer types. Experiments were performed using a 3D clonogenic assay in a 96-well format with colony count based on image analysis as a read-out. By using this assay, the investigational compound was assessed for the ability to inhibit anchorage independent growth and ex vivo colony formation of tumor cells in semi-solid medium.
A master stock solution of plinabulin was prepared by dissolving the compound in DMSO at a concentration of 9.9 mM. Working stock solutions were prepared by diluting the master stock solution with DMSO to a concentration of 0.99 mM (330-fold the highest test concentration). Small aliquots of the master and working stock were stored at −20° C. […]
Plinabulin was investigated in 68 PDX models representing a number of cancer types. […] The percentage of viable cells was determined in a Neubauer-hemocytometer using trypan blue exclusion. […]
The clonogenic assay was carried out in a 96 well plate format using ultra low attachment plates. […] Cultures were incubated at 37° C. and 7.5% CO2 in a humidified atmosphere 13 days in total and monitored closely for colony growth using an inverted microscope. […]

Consider `CC(C)(C)c1[nH]cnc1/C=c1\[nH]c(=O)/c(=C/c2ccccc2)[nH]c1=O` [plinabulin, (3Z,6Z)-3-Benzylidene-6-{[5-(2-methyl-2-propanyl)-1H-imidazol-4-yl]methylene}-2,5-piperazinedione], for which the “geometric mean absolute IC70” value was above 3000 nM. The IC50 (commonly the concentration that inhibits the measured activity by half) (read-out: geom. mean abs. IC50) was 1370 nM.
